The values that follow come from patent US12168673B2 (Mitopower, Inc., priority 2022, dated 2024).

One series is described as follows: Kinetic solubility. In kind it is physicochemical. Particulars: aqueous buffer, kinetic from dmso stock, 0.1 M phosphate buffered saline pH 7.4, target 100 μM, 1.5 h. The protocol: The target compound concentration was 100 μM (kinetic), the assay buffer was 0.1 M phosphate buffered saline pH 7.4, the mixing period was 1.5 h (kinetic). The sample was prepared by centrifugation or filtration and the detection method used was HPLC with UV-vis spectrometry.

Series [1] in a line: Caco-2 permeability assay. The note with it: human. An excerpt:
The endpoint measured is the intestinal permeability expressed as apparent permeability—Papp value. All permeability values are represented as ×10^−6 cm/sec.

Series [2] concerns human hepatocytes. Put plainly: Human hepatocyte clearance. In kind it is in vitro ADME. The procedure: (§1) A hepatocyte vial was taken out from the liquid nitrogen tank and was thawed in a water bath maintained at 37° C. The thawed cell suspension was transferred into a torsion tube containing 50 mL of thawing media (Xenotech). The thawing media containing hepatocytes was centrifuged at 1000 rpm for 5 min, the supernatant was discarded and the pellet was resuspended in 2 ml of Xenotech OptiIncubate Media. The cells were counted by using a haemocytometer after mixing an aliquot of cell suspension with equal volume of trypan blue. The cell suspension was diluted to a working density of 2 million cells with DMEM media without FBS/incubation media.
(§2) The assay was performed in duplicates (n=2). 150 μL of 2 million cell working stock of hepatocyte cell suspension was added to a 24 well plate and incubated in a 37° C. incubator, with speed of 500 RPM for 10 min. 150 μL of 2 μM working stock of test compound was incubated separately. The reaction at 0, 15, 30, 60 and 90 min was stopped by precipitating 20 μL of incubation mixture with 200 μL of acetonitrile containing internal standard. […] The supernatant was separated and diluted 1:1 with water before injecting in LC-MS/MS analysis.

A short description of a further series: in vitro. Particulars: human, plasma. The protocol:
(§3) The test compounds were weighed and prepared as 10 mM stocks in 100% DMSO. 10 μM is the final test concentration for all compounds.
(§4) The samples were prepared by spiking test compound(s) in plasma at 10 μM final concentration. 200 μL of plasma containing the test compound was added into the donor well (RED Chamber) of the insert. Simultaneously 350 μL of dialysis buffer (1×PBS) was added into the receiver well (white chamber). Two measurements were made for each test compound. The plate was covered with a sealer and incubated at 37° C. degrees on an orbital shaker at 500 rpm for 5 hours.
(§5) After incubation, 25 μl of plasma (RED chamber) and 25 μl of buffer (white chamber) samples were separately collected into separate centrifugation tubes. Plasma and buffer samples were precipitated with 200 μL of 100% acetonitrile containing internal standards. 25 μl of T0 (T Zero) plasma samples (samples before 5 hours incubation) were collected (To samples were processed immediately after the preparation of plasma working stock solution. These samples serve as a measure for calculating the percentage recovery of the test compound and precipitated using 100% acetonitrile containing internal standards). The samples were vortexed at 1000 rpm for 5 min and centrifuged at 4000 rpm for 10 min. The supernatant was diluted 2-fold with water and injected into LC-MS/MS.
(§6) The % of Plasma bound/unbound fraction was calculated by the following equation: % Unbound or % free=100*(Fc/Tc); % Recovery=100 (Fc+Tc)/[…] where Tc=Total compound concentration as determined by the calculated concentration on the plasma side of the membrane (concentration in plasma chamber), Fc=Free compound concentration as determined by the calculated concentration on the buffer side of the membrane (concentration in buffer chamber) and T0=Total compound concentration as determined before dialysis.

The test system of another series is Human Plasma Protein. The series can be described thus: in vitro. The protocol:
as §3, §4, §5, §6

For series [3], the system named is human hepatocytes. Particulars: 1 μM.
Experimental: (§7) 10 mM stock solution of test compound was prepared in DMSO and diluted to a concentration of 1 mM with DMSO. Working concentration of 2 μM was prepared by further dilution with PBS. Preincubation mixture of 150 μL of hepatocyte cell suspension (1,000,000 cells/mL, INVITROGRO HT medium buffer), was added to vials for preincubation for 10 min @37° C.
(§8) 150 μL of 2 μM working stock of the test compound was added to the cell suspension and incubated at @37 C at 500 rpm. The reaction was stopped at 0, 15, 30, 60 and 90 min by precipitating 50 μL of the incubation mixture with 150 μL of acetonitrile. Samples were vortexed for 5 min at 1200 rpm and centrifuged at 4000 rpm for 10 min. 150 μL of the supernatant was diluted with 150 μL of water and injected in MS system (SCIEX, API 4500 Q Trap) for analysis.
In a further series the test system is Jurkat Cells. Put plainly: Cellular NAD+ levels in Jurkat cells (LCMS/MS). The note with it: 30 μM, four hours of incubation. In kind it is cell-based. The protocol:
Compounds 100, 101 and 102 were weighted out to prepare 60 μM stock solutions in RPMI media. 200 ng/mL solution of Rac-tenofovir d6 (Vivan Life-Sciences) was prepared in methanol (MeOH) and placed at −20° C. until use.
Jurkat Cells, sourced from NCCS Pune, were cultured in RPMI media containing FBS & Antibiotics. Cells from different flasks (90% confluent) were pooled into a 15 mL conical tube and centrifuged for 5 mins at 1200 rpm for 5 mins. The supernatant solution was discarded, and the pellet was washed with 5 mL sterile PBS (without Ca^2+ & Mg^2+). The tube was then centrifuged at 1200 rpm for 5 mins and the supernatant was discarded. The cell pellet was resuspended in 7 mL of RPMI media, and a cell count was done using 10 uL of the cell solution. 1.5 million cells from the cell solution were seeded into 1.5 mL microcentrifuge tubes. […] The tubes were placed in racks and gently swirled to mix the compounds into the media containing the cells. These tubes were then incubated for 4 hours in a 37° C. incubator at 5% CO2. After 4 hours of incubation the cells were spun down at 1000 rpm for 10 mins, the supernatant was discarded carefully, and cells were snap frozen in liquid nitrogen. When the samples were run, the extraction of the cells was on ice, cells were lysed using 20 uL deionized water and then ice cold 80% methanol containing the internal standard—Rac-Tenofovir D was added. The tubes were then vortexed at 2500 rpm for 8 minutes and then centrifuged at […] for 10 minutes. 150 uL of the supernatant was carefully transferred to HPLC vials and was analyzed for NAD^+ on the Abscised 4000 Q Trap LCMS/MS system. A C18, 3.5 μm, 2.1×100 mm, Bridge Column was used in the LC. The mobile phase consisted of 10 mM ammonium acetate with 0.1% acetic acid and 0.1% hexylamine as Solvent-A and 10 mM Ammonium acetate with 0.1% acetic acid and 0.1% hexylamine in 95/5 MeOH/H2O as Solvent-B. The gradient used was 0 mins-0.0% B, 0.5 mins-100% B, 1.5 mins-100% B, 3.0 mins-100% B, 3.1 mins-0.0% B, 7.0-STOP. The column flow rate was 0.5 mL/min. The sample injection volume was […].

The next series concerns Huh-7 Cells. Put plainly: Cellular NAD+ levels in Huh-7 cells (LCMS/MS). In kind it is cell-based. Particulars: 125 μm, four hours of incubation. The protocol: Huh-7 Cells, sourced from NCCS Pune, were cultured in RPMI media containing FBS & Antibiotics. Cells from different flasks (80-90% confluent) were pooled into a 15 mL conical tube and centrifuged for 5 mins at 1200 rpm for 5 mins. The supernatant solution was discarded, and the pellet was washed with 5 mL sterile PBS (without Ca^2+ and Mg^2+). The tube was then centrifuged at 1200 rpm for 5 mins and the supernatant was discarded. The cell pellet was resuspended in 7 mL of RPMI media, and a cell count was done using 10 uL of the cell solution. 1.5 million cells from the cell solution were seeded into 1.5 mL microcentrifuge tubes. […] The tubes were placed in racks and gently swirled to mix the compounds into the media containing the cells. These tubes were then incubated for 4 hours in a 37° C. incubator at 5% CO2. After 4 hours of incubation the cells were spun down at 1000 rpm for 10 mins, the supernatant was discarded carefully, and cells were snap frozen in liquid nitrogen. When the samples were run, the extraction of the cells was on ice, cells were lysed using 20 uL deionized water and then ice cold 80% methanol containing the internal standard—Rac-Tenofovir D was added. The tubes were then vortexed at 2500 rpm for 8 minutes and then centrifuged at […] for 10 minutes. 150 uL of the supernatant was carefully transferred to HPLC vials and was analyzed for NAD^+ on the Abscised 4000 Q Trap LCMS/MS system. A C18, 3.5 μm, 2.1×100 mm, Bridge Column was used in the LC. The mobile phase consisted of 10 mM ammonium acetate with 0.1% acetic acid & 0.1% hexylamine as Solvent-A and 10 mM Ammonium acetate with 0.1% acetic acid and 0.1% hexylamine in 95/5 MeOH/H2O as Solvent-B. The gradient used was 0 mins-0.0% B, 0.5 mins-100% B, 1.5 mins-100% B, 3.0 mins-100% B, 3.1 mins-0.0% B, 7.0-STOP. The column flow rate was 0.5 mL/min. The sample injection volume was […].

Series [4] can be described thus: PK study in rats (plasma). The note with it: for half-life: read-out: T1/2 (converted); for AUC(0-t): read-out: AUC0-1. In kind it is in vivo.
The nature of series [5]: Human hepatocyte clearance. In kind it is in vitro ADME. Particulars: human hepatocytes, 1 μM. The procedure: as §1, §2
In series [6] the test system is human hepatocytes. Put plainly: Human hepatocyte stability.
Experimental: as §7, §8
Where [7] appears, read: read-out: Mean Solubility (μg/mL).

SMILES strings stand for the structures. Where two headings read alike, the source gives them in different places.

On to `CC(C(=O)O)c1ccc(-c2ccccc2)c(F)c1` (stereo not shown) [Flurbiprofen, reference compound], for which the values for the solubility at 1.5 h in the series “Kinetic solubility” (read-out: Mean Solubility) and in the series “Kinetic solubility” (setting [7]) were 111 µM and 27 µg/mL, respectively.

For `NC(=O)N1c2ccccc2C=Cc2ccccc21` [Carbamazepine, reference compound], in [1], the apical-to-basolateral permeability (Papp A→B) was found to be 222 nm/s, the Papp B→A was found to be 234 nm/s and the efflux ratio was determined as 1.1. In series [1] (Caco-2, % Recovery A to B), this compound yielded a recovery of 89.3%. Further, the recovery in series [1] (Caco-2, % Recovery B to A) was found to be 91%.

In the case of `CC(=O)CC(c1ccccc1)c1c(O)c2ccccc2oc1=O` (stereo not shown) [Warfarin, reference compound], the “Remarks (clearance class)” value with human hepatocytes [2] is listed as “Low*”. Besides, the free fraction (fraction unbound) at 5 h, 10 μM in the series “in vitro” (% Bound in plasma) was 0.0044; in the series “in vitro” (% Unbound in plasma), 0.0054; in the series “in vitro” (Fraction unbound), 0.005. For the same compound, the “Remarks (binding class)” value in the series with Human Plasma Protein is listed as “High binding”. Moreover, the “% Parent Remaining” value in the series with human hepatocytes [3] (0 h) came out at 100%; with human hepatocytes [3] (0.25 h), 91%; with human hepatocytes [3] (0.5 h), 89%; in the series on human hepatocytes [3] (1 h) it was 96%; in the series with human hepatocytes [3] (1.5 h) it was 96%.

Turning to `O=c1[nH]c2ccccc2n1CCCN1CCC(n2c(=O)[nH]c3cc(Cl)ccc32)CC1` [Domperidone, reference compound], in [1], the apparent permeability from apical to basolateral (Papp A→B) stood at 39 nm/s, the apparent permeability from basolateral to apical (Papp B→A) amounted to 203 nm/s and the efflux ratio was 5.2. For the same compound, the recovery in series [1] (Caco-2, % Recovery A to B) was 61.8%. This compound also returned a recovery in series [1] (Caco-2, % Recovery B to A) of 76.4%.

Regarding `O=C(O)c1cccnc1` [Nicotinic acid], the “NAD+ level increase compared to untreated cells” value in the series with Jurkat Cells is given as “showed statistical significance in terms of NAD^+ level increases”. In addition, the “NAD+ level increase compared to untreated cells” value with Huh-7 Cells is recorded as “showed an increase”. Moreover, in series [4] (rat, plasma, iv, 40 mg/kg), the highest level (Cmax) was 1240 ± 833 µM, the Tmax was found to be 15 min, the clearance is 0.304 L/h/kg and the AUC(0-t) was found to be 1080 ± 426 µM·h. Besides, in series [4] (rat, plasma, iv, 40 mg/kg, rats, Group 4: nicotinic acid 40 mg/kg IV), the half-life is 26.9 ± 16.6 min. In addition, in series [4] (rat, plasma, iv, 40 mg/kg, read-out: Vss), the Vd came to 0.211 ± 0.156 L/kg. In addition, in series [4] (rat, plasma, po, 200 mg/kg), the Cmax amounted to 519 ± 83.3 µM, the time to peak (Tmax) is 79.8 ± 34.8 min, the bioavailability is 29% and the AUC(0-t) came out at 1680 ± 305 µM·h. Besides, in series [4] (rat, plasma, po, 200 mg/kg, rats, Group 3: nicotinic acid 200 mg/kg PO), the half-life was 85.2 ± 25.8 min. In addition, in series [4] (rats, IV), the “IV pharmacokinetics profile (in words)” value is reported as “No distribution phase”.

Turning to `CCCSc1ccc2nc(NC(=O)OC)[nH]c2c1` [Albendazole, reference compound], the solubility at 1.5 h stood at 0.66 µM in the series “Kinetic solubility” (read-out: Mean Solubility) and 0.2 µg/mL in the series “Kinetic solubility” (setting [7]).

Take `C[C@]12CC[C@H]3[C@@H](CCC4=CC(=O)CC[C@@]43C)[C@@H]1CC[C@@H]2O` [Testosterone, reference compound]: the half-life at 1 μM in [5] (0-90 min, read-out: T½) was 9.14 min. Further, the hepatocyte CLint at 1 μM in series [5] (read-out: Intrinsic Clearance (CL Int)) came out at 75.8 µL/min/1e6 cells. The “Remarks (clearance class)” value in the series with human hepatocytes [2] was “High*”. The “% Parent Remaining” value with human hepatocytes [6] (0 mins) turned out to be 100%; with human hepatocytes [6] (15 mins), 28%; with human hepatocytes [6] (30 mins), 11%; with human hepatocytes [6] (60 mins), 3%; with human hepatocytes [6] (90 mins), 1%.
